Data as given in PubChem BioAssay (NCI).
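Grown in 96-well plates, cells were treated for 48 hours with each compound at five concentrations. Insufficient inhibition: endpoint recorded as highest concentration tested. GI50 = concentration required for 50% inhibition of growth. Definition used: TGI = concentration required for complete inhibition of growth.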

Tests used:
Experiment in all cases: growth of human tumour cells (NCI), 48 h
SW-620 colon = system: SW-620 colon
HOP-92 NSCLC = system: HOP-92 NSCLC
KM12 colon = system: KM12 colon
K-562 leukemia = system: K-562 leukemia
HL-60(TB) leukemia = system: HL-60(TB) leukemia
CAKI-1 renal = system: CAKI-1 renal
OVCAR-4 ovarian = system: OVCAR-4 ovarian
UACC-257 melanoma = system: UACC-257 melanoma
OVCAR-3 ovarian = system: OVCAR-3 ovarian
COLO 205 colon = system: COLO 205 colon
EKVX NSCLC = system: EKVX NSCLC
HCT-116 colon = system: HCT-116 colon
MALME-3M melanoma = system: MALME-3M melanoma
OVCAR-8 ovarian = system: OVCAR-8 ovarian
RPMI-8226 leukemia = system: RPMI-8226 leukemia
NCI-H460 lung = system: NCI-H460 lung
UACC-62 melanoma = system: UACC-62 melanoma
HCT-15 colon = system: HCT-15 colon
SK-MEL-2 melanoma = system: SK-MEL-2 melanoma
MCF7 breast = system: MCF7 breast
HOP-62 NSCLC = system: HOP-62 NSCLC
LOX IMVI melanoma = system: LOX IMVI melanoma
OVCAR-5 ovarian = system: OVCAR-5 ovarian
A549 NSCLC = system: A549 NSCLC
SK-OV-3 ovarian = system: SK-OV-3 ovarian
BT-549 breast = system: BT-549 breast
M14 melanoma = system: M14 melanoma
NCI-H522 lung = system: NCI-H522 lung
DU-145 prostate = system: DU-145 prostate
SNB-75 CNS = system: SNB-75 CNS
MDA-MB-435 = system: MDA-MB-435
ACHN renal = system: ACHN renal
SK-MEL-5 melanoma = system: SK-MEL-5 melanoma
T-47D breast = system: T-47D breast
HS 578T breast = system: HS 578T breast
SK-MEL-28 melanoma = system: SK-MEL-28 melanoma
CCRF-CEM leukemia = system: CCRF-CEM leukemia
NCI/ADR-RES ovarian = system: NCI/ADR-RES ovarian
U251 CNS = system: U251 CNS
MOLT-4 leukemia = system: MOLT-4 leukemia
SF-295 CNS = system: SF-295 CNS
RXF 393 renal = system: RXF 393 renal
786-0 renal = system: 786-0 renal
MDA-MB-231 breast = system: MDA-MB-231 breast
A498 renal = system: A498 renal
MDA-MB-468 breast = system: MDA-MB-468 breast
IGROV1 ovarian = system: IGROV1 ovarian
UO-31 renal = system: UO-31 renal
SF-539 CNS = system: SF-539 CNS
NCI-H226 lung = system: NCI-H226 lung
SNB-19 CNS = system: SNB-19 CNS
SN12C renal = system: SN12C renal
NCI-H23 lung = system: NCI-H23 lung
TK-10 renal = system: TK-10 renal
SR leukemia = system: SR leukemia
PC-3 prostate = system: PC-3 prostate
HCC-2998 colon = system: HCC-2998 colon
SF-268 CNS = system: SF-268 CNS
HT29 colon = system: HT29 colon

For `COc1ccc2[nH]c(O)c(N=NC(=O)COc3ccc(NC(=O)Nc4ccccc4)cc3)c2c1`, which GI50 (SW-620 colon) is on record?
Its GI50 is 15.2 µM.

What about the TGI (SW-620 colon) of the same compound?
The TGI was 43.3 µM.

What about the GI50 (HOP-92 NSCLC) of the same compound?
Its GI50 is 7.82 µM.

And the TGI (HOP-92 NSCLC)?
The TGI was 25.4 µM.

What about the GI50 (KM12 colon) of the same compound?
The GI50 was 0.684 µM.

And the TGI (KM12 colon)?
The TGI was 21 µM.

And the GI50 (K-562 leukemia)?
Its GI50 is 26.7 µM.

What about the TGI (K-562 leukemia) of the same compound?
Its TGI is over 100 µM.

What about the GI50 (HL-60(TB) leukemia) of the same compound?
The GI50 was 29.6 µM.

And the TGI (HL-60(TB) leukemia)?
Its TGI is over 100 µM.

What about the GI50 (CAKI-1 renal) of the same compound?
Its GI50 is 24.3 µM.

And the TGI (CAKI-1 renal)?
Its TGI is 70.1 µM.

And the GI50 (OVCAR-4 ovarian)?
The GI50 was 11.1 µM.

And the TGI (OVCAR-4 ovarian)?
The TGI was 33 µM.

What about the GI50 (UACC-257 melanoma) of the same compound?
Its GI50 is 19.5 µM.

What about the TGI (UACC-257 melanoma) of the same compound?
Its TGI is 41.5 µM.

What about the GI50 (OVCAR-3 ovarian) of the same compound?
The GI50 was 17.4 µM.

What about the TGI (OVCAR-3 ovarian) of the same compound?
Its TGI is 35.5 µM.

What about the GI50 (COLO 205 colon) of the same compound?
The GI50 was 16.5 µM.

What about the TGI (COLO 205 colon) of the same compound?
The TGI was 33.5 µM.

What about the GI50 (EKVX NSCLC) of the same compound?
The GI50 was 35.3 µM.

And the TGI (EKVX NSCLC)?
The TGI was over 100 µM.

What about the GI50 (HCT-116 colon) of the same compound?
The GI50 was 2.91 µM.

And the TGI (HCT-116 colon)?
Its TGI is 27.5 µM.

And the GI50 (MALME-3M melanoma)?
Its GI50 is 14.4 µM.

And the TGI (MALME-3M melanoma)?
The TGI was 28.4 µM.

And the GI50 (OVCAR-8 ovarian)?
The GI50 was 9.79 µM.

What about the TGI (OVCAR-8 ovarian) of the same compound?
Its TGI is 27.5 µM.

What about the GI50 (RPMI-8226 leukemia) of the same compound?
The GI50 was 58 µM.

And the TGI (RPMI-8226 leukemia)?
The TGI was over 100 µM.

And the GI50 (NCI-H460 lung)?
Its GI50 is 15.7 µM.

What about the TGI (NCI-H460 lung) of the same compound?
The TGI was 41.2 µM.

What about the GI50 (UACC-62 melanoma) of the same compound?
Its GI50 is 16.3 µM.

And the TGI (UACC-62 melanoma)?
The TGI was 30.8 µM.

And the GI50 (HCT-15 colon)?
The GI50 was over 100 µM.

And the TGI (HCT-15 colon)?
The TGI was over 100 µM.

What about the GI50 (SK-MEL-2 melanoma) of the same compound?
Its GI50 is 16.4 µM.

And the TGI (SK-MEL-2 melanoma)?
Its TGI is 33.4 µM.

And the GI50 (MCF7 breast)?
Its GI50 is 17.4 µM.

What about the TGI (MCF7 breast) of the same compound?
The TGI was 40.2 µM.

What about the GI50 (HOP-62 NSCLC) of the same compound?
Its GI50 is 18.5 µM.

And the TGI (HOP-62 NSCLC)?
The TGI was 34.6 µM.

What about the GI50 (LOX IMVI melanoma) of the same compound?
Its GI50 is 17 µM.

What about the TGI (LOX IMVI melanoma) of the same compound?
Its TGI is 36.8 µM.

And the GI50 (OVCAR-5 ovarian)?
Its GI50 is 18.3 µM.

What about the TGI (OVCAR-5 ovarian) of the same compound?
The TGI was 45.4 µM.

What about the GI50 (A549 NSCLC) of the same compound?
Its GI50 is 21.9 µM.

What about the TGI (A549 NSCLC) of the same compound?
The TGI was 58.4 µM.

And the GI50 (SK-OV-3 ovarian)?
Its GI50 is 19.6 µM.

What about the TGI (SK-OV-3 ovarian) of the same compound?
Its TGI is 44 µM.

What about the TGI (BT-549 breast) of the same compound?
Its TGI is 20.2 µM.

What about the GI50 (M14 melanoma) of the same compound?
Its GI50 is 2.9 µM.

And the TGI (M14 melanoma)?
Its TGI is 21.1 µM.

And the GI50 (NCI-H522 lung)?
The GI50 was 15.3 µM.

And the TGI (NCI-H522 lung)?
Its TGI is 38.5 µM.

And the GI50 (DU-145 prostate)?
Its GI50 is 30.9 µM.

What about the TGI (DU-145 prostate) of the same compound?
The TGI was over 100 µM.

What about the GI50 (SNB-75 CNS) of the same compound?
The GI50 was 10.7 µM.

What about the TGI (SNB-75 CNS) of the same compound?
Its TGI is 27.3 µM.

And the GI50 (MDA-MB-435)?
The GI50 was 16.3 µM.

What about the TGI (MDA-MB-435) of the same compound?
Its TGI is 35.4 µM.

What about the GI50 (ACHN renal) of the same compound?
The GI50 was 39.5 µM.

And the TGI (ACHN renal)?
The TGI was over 100 µM.

And the GI50 (SK-MEL-5 melanoma)?
Its GI50 is 16.9 µM.

What about the TGI (SK-MEL-5 melanoma) of the same compound?
The TGI was 36.5 µM.

And the GI50 (T-47D breast)?
Its GI50 is 15.4 µM.

And the TGI (T-47D breast)?
Its TGI is 31.2 µM.

What about the GI50 (HS 578T breast) of the same compound?
Its GI50 is 17.3 µM.

What about the TGI (HS 578T breast) of the same compound?
The TGI was 75.6 µM.

What about the GI50 (SK-MEL-28 melanoma) of the same compound?
The GI50 was 16.6 µM.

And the TGI (SK-MEL-28 melanoma)?
Its TGI is 30.7 µM.

And the GI50 (CCRF-CEM leukemia)?
Its GI50 is 33.1 µM.

And the TGI (CCRF-CEM leukemia)?
Its TGI is over 100 µM.

And the GI50 (NCI/ADR-RES ovarian)?
The GI50 was over 100 µM.

And the TGI (NCI/ADR-RES ovarian)?
Its TGI is over 100 µM.

What about the GI50 (U251 CNS) of the same compound?
The GI50 was 15.7 µM.

And the TGI (U251 CNS)?
Its TGI is 37.6 µM.

What about the GI50 (MOLT-4 leukemia) of the same compound?
The GI50 was 23.7 µM.

What about the TGI (MOLT-4 leukemia) of the same compound?
The TGI was over 100 µM.

What about the GI50 (SF-295 CNS) of the same compound?
Its GI50 is 18.1 µM.

What about the TGI (SF-295 CNS) of the same compound?
The TGI was 39.8 µM.

And the GI50 (RXF 393 renal)?
The GI50 was 13.6 µM.

What about the TGI (RXF 393 renal) of the same compound?
The TGI was 32.5 µM.

And the GI50 (786-0 renal)?
The GI50 was 13.6 µM.

What about the TGI (786-0 renal) of the same compound?
The TGI was 30.6 µM.

What about the GI50 (MDA-MB-231 breast) of the same compound?
Its GI50 is 14.3 µM.

And the TGI (MDA-MB-231 breast)?
Its TGI is 28.6 µM.

And the GI50 (A498 renal)?
The GI50 was 18.3 µM.

And the TGI (A498 renal)?
The TGI was 38.4 µM.

And the GI50 (MDA-MB-468 breast)?
Its GI50 is 11.1 µM.

What about the TGI (MDA-MB-468 breast) of the same compound?
Its TGI is 26.2 µM.

And the GI50 (IGROV1 ovarian)?
The GI50 was 22.5 µM.

And the TGI (IGROV1 ovarian)?
Its TGI is 59.2 µM.

What about the GI50 (UO-31 renal) of the same compound?
The GI50 was over 100 µM.

What about the TGI (UO-31 renal) of the same compound?
The TGI was over 100 µM.

What about the GI50 (SF-539 CNS) of the same compound?
The GI50 was 14.7 µM.

What about the TGI (SF-539 CNS) of the same compound?
The TGI was 28.2 µM.

And the GI50 (NCI-H226 lung)?
The GI50 was 15 µM.

And the TGI (NCI-H226 lung)?
Its TGI is 34.7 µM.

And the GI50 (SNB-19 CNS)?
The GI50 was 16.6 µM.

And the TGI (SNB-19 CNS)?
The TGI was 35.4 µM.

What about the GI50 (SN12C renal) of the same compound?
Its GI50 is 16.4 µM.

And the TGI (SN12C renal)?
The TGI was 31.7 µM.

What about the GI50 (NCI-H23 lung) of the same compound?
The GI50 was 15.8 µM.

What about the TGI (NCI-H23 lung) of the same compound?
The TGI was 32.7 µM.

And the GI50 (TK-10 renal)?
Its GI50 is 46.2 µM.

And the TGI (TK-10 renal)?
The TGI was over 100 µM.

What about the GI50 (SR leukemia) of the same compound?
The GI50 was 22.9 µM.

What about the TGI (SR leukemia) of the same compound?
The TGI was over 100 µM.

And the GI50 (PC-3 prostate)?
The GI50 was 14.5 µM.

And the TGI (PC-3 prostate)?
Its TGI is 36.3 µM.

And the GI50 (HCC-2998 colon)?
Its GI50 is 17.5 µM.

What about the TGI (HCC-2998 colon) of the same compound?
Its TGI is 42.8 µM.

What about the GI50 (SF-268 CNS) of the same compound?
The GI50 was 14.3 µM.

And the TGI (SF-268 CNS)?
Its TGI is 34.3 µM.

And the GI50 (HT29 colon)?
Its GI50 is 26 µM.

And the TGI (HT29 colon)?
Its TGI is over 100 µM.
